Assay results from patent US20170283440A1, “CARM1 INHIBITORS AND USES THEREOF” (Epizyme, Inc., priority 2014, published 2017).
Read-outs that look alike come from different tables or passages of the source.

Legend:
Human CARM1 (PRMT4) = target: T1, Human CARM1 (PRMT4) (Homo sapiens, UniProt Q86X55); assay: CARM1 enzyme assay on peptide substrate (3H-SAM Flashplate); format: biochemical; conditions: CARM1 0.25 nM, 3H-SAM 30 nM, peptide 250 nM; read-out: Biochem IC50
T1 construct: Flag-CARM1-His was eluted with 200 ug/ml FLAG peptide in buffer A; made in house; host or cells: HEK 293F cells infected with recombinant baculovirus (pFastBacMam)
Summary of the method: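 Flag-CARM1-His (isoform 1, Δ539-561; HEK293F-expressed), 0.25 nM, preincubated 30 min RT with compound, then 30 nM 3H-SAM and 250 nM biotinylated H3(16-30) R26me1 peptide in pH 7.6 Bicine buffer, 2% DMSO. Stopped with 300 uM cold SAM; streptavidin Flashplate capture, cpm. % inhibition vs DMSO/1 mM SAH, 3- or 4-parameter fit.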

[1] = tested on: asymmetric di-methyl PABP1 in RKO cells; assay: RKO methylation assay (In Cell Western for asymmetric di-methyl PABP1); format: cell-based; conditions: 48 hours incubation, read-out: Cellular IC50
Summary of the method: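 RKO cells treated 48 h at 37 °C, then fixed, methanol-permeabilized and probed for asymmetric di-methyl PABP1 (16 h, 4 °C) with DRAQ5 counterstain; 800/700 nm intensity ratio read.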

T1 sequence (Q86X55 other isoform, or with tags, fused parts or gaps): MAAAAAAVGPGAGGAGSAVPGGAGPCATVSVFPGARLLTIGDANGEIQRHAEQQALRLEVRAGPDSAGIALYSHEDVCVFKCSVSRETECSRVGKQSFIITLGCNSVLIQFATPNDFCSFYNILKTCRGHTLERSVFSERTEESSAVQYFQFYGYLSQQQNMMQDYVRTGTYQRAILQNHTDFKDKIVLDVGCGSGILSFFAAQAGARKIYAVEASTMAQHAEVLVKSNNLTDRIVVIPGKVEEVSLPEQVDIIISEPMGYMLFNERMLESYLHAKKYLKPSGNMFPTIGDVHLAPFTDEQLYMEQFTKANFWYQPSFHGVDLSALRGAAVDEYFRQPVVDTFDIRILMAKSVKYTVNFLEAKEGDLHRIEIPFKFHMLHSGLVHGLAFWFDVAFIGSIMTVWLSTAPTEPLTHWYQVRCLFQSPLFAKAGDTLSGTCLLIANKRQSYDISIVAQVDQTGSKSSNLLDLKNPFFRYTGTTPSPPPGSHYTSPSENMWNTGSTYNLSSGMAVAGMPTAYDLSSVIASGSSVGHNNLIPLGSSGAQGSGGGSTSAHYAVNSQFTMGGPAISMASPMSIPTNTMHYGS

IC50 (Human CARM1 (PRMT4)) [nM] | IC50 ([1]; Homo sapiens) [nM] | IC50 [1] [nM] | Structure (SMILES)
< 100 | 10000 to 20000 | – | CNCC(O)COc1cc(OC)cc(-c2cc(N(C)C3CCOCC3)c3c(C)nn(C(C)C)c3n2)c1 (stereo not drawn) [Example 25-4]
100 to 1000 | > 20000 | – | CC(C)n1ncc2c(N3CCOCC3)cc(-c3cc(OC[C@H](O)CN)cc(OC[C@H](O)CN)c3)nc21 [Example 25-9]
100 to 1000 | > 20000 | – | CNCC(O)COc1cc(C#N)cc(-c2cc(N3CCOCC3)n3ncc(C(C)C)c3n2)c1 (stereo not drawn) [Example 26-9]
< 100 | > 20000 | – | CNCC(O)COc1cc(Cl)cc(-c2cc(N3CCOCC3)n3ncc(C(C)C)c3n2)c1 (stereo not drawn) [Example 27-6]
100 to 1000 | > 20000 | – | CNCC(O)COc1cc(OC(F)(F)F)cc(-c2cc(NC3CCOCC3)c3cnn(C(C)C)c3n2)c1 (stereo not drawn) [Example 28-4]
< 100 | > 20000 | – | CNCC(O)COc1cc(Cl)cc(-c2cc(NC3CCOC3)n3ncc(C(C)C)c3n2)c1 (stereo not drawn) [Example 28-6]
< 100 | > 20000 | – | CNCC(O)COc1cc(Cl)cc(-c2cc(N[C@@H]3CCOC3)n3ncc(C(C)C)c3n2)c1 (stereo partly drawn) [Example 29-6]
< 100 | 5000 to 10000 | – | CNCC(O)COc1cccc(-c2nc(NC3CCOCC3)c3cnn(C(C)(C)C)c3n2)c1 (stereo not drawn) [Example 30-5]
100 to 1000 | > 20000 | – | C=Cc1cc(OCC(O)CNC)cc(-c2cc(NC3CCOCC3)n3ncc(C(C)C)c3n2)c1 (stereo not drawn) [Example 33-6]
< 100 | > 20000 | – | CNCC(O)COc1cc(OC)cc(-c2cc(NC3CCOCC3)n3ncc(C(C)C)c3n2)c1 (stereo not drawn) [Example 34-6]
< 100 | > 20000 | – | CNCC(O)COc1cc(OC)cc(-c2cc(N(C)[C@@H]3CCOC3)n3ncc(C(C)C)c3n2)c1 (stereo partly drawn) [Example 35-6]
< 100 | > 20000 | – | CNCC(O)COc1cc(OC)cc(-c2cc(N(C)[C@H]3CCOC3)n3ncc(C(C)C)c3n2)c1 (stereo partly drawn) [Example 36-6]
100 to 1000 | > 20000 | – | CNCC(O)COc1cc(OC)cc(-c2cc(N3CCC(O)CC3)n3ncc(C(C)C)c3n2)c1 (stereo not drawn) [Example 37-6]
< 100 | > 20000 | – | CNCC(O)COc1cc(Cl)cc(-c2cc(NC3CCOCC3)n3ncc(C(C)C)c3n2)c1 (stereo not drawn) [Example 39-6]
100 to 1000 | > 20000 | – | CNCC(O)COc1cc(OC)cc(-c2cc(N3CC4CCC(C3)O4)n3ncc(C(C)C)c3n2)c1 (stereo not drawn) [Example 43-6]
< 100 | > 20000 | – | CNCC(O)COc1cc(Cl)cc(-c2cc(NC3CCOCC3)n3ncc(C(C)(C)C)c3n2)c1 (stereo not drawn) [Example 48-6]
100 to 1000 | > 20000 | – | CNCC(O)COc1cc(OC)cc(-c2cc(N3CC4(CCOCC4)C3)n3ncc(C(C)C)c3n2)c1 (stereo not drawn) [Example 49-6]

The next lines start with the compound.

Structure (SMILES) | IC50 (Human CARM1 (PRMT4)) [nM] | IC50 ([1]; Homo sapiens) [nM] | IC50 [1] [nM]
CNCC(O)COc1cccc(-c2nc(NCc3ccn(C)n3)c3cnn(C4CC4)c3n2)c1 (stereo not drawn) [Example 25-5] | 100 to 1000 | > 20000 | –
CNCC(O)COc1cc(OC)cc(-c2cc(N(C)CCOC)n3ncc(C(C)C)c3n2)c1 (stereo not drawn) [Example 25-6] | < 100 | > 20000 | –
CNCC(O)COc1cc(Cl)cc(-c2cc(N3CCOC3=O)n3ncc(C(C)C)c3n2)c1 (stereo not drawn) [Example 26-6] | 100 to 1000 | > 20000 | –
CNCC(O)COc1cccc(-c2cc(NS(=O)(=O)N(C)C)c3cnn(C(C)C)c3n2)c1 (stereo not drawn) [Example 27-9] | 100 to 1000 | > 20000 | –
CC(C)n1ncc2c(N3CCOCC3)cc(-c3cccc(NCC(O)CN)c3)nc21 (stereo not drawn) [Example 28-9] | 100 to 1000 | > 20000 | –
Cc1cc(C)c(CNC(=O)c2cc(-c3cccc(OCC(O)CN)c3)nc3nn(C(C)C)cc23)c(=O)[nH]1 (stereo not drawn) [Example 29-9] | 100 to 1000 | > 20000 | –
CNCC(O)COc1cc(Cl)cc(-c2cc(N(C)CCOC)n3ncc(C(C)C)c3n2)c1 (stereo not drawn) [Example 30-6] | < 100 | > 20000 | –
CNCC(O)COc1cccc(-c2nc(NCc3cccc[n+]3[O-])c3cnn(C4CC4)c3n2)c1 (stereo not drawn) [Example 31-5] | 100 to 1000 | > 20000 | –
CNCC(O)COc1cc(OC)cc(-c2cc(Nc3ncccn3)n3ncc(C(C)C)c3n2)c1 (stereo not drawn) [Example 31-6] | < 100 | > 20000 | –
CC(C)n1ncc2c(N3CCOCC3)cc(-c3cccc(CCC(O)CN)c3)nc21 (stereo not drawn) [Example 31-9] | 100 to 1000 | – | > 20000
CNCC(O)COc1cccc(-c2nc(NCc3ccc[n+]([O-])c3)c3cnn(C4CC4)c3n2)c1 (stereo not drawn) [Example 32-5] | 100 to 1000 | > 20000 | –
CNCC(O)COc1cccc(-c2cc(N3CC4(CCOCC4)C3)n3ncc(C(C)C)c3n2)c1 (stereo not drawn) [Example 32-6] | < 100 | > 20000 | –
CNCC(O)COc1cccc(-c2nc(NCc3ccccn3)c3cnn(C(C)(C)C)c3n2)c1 (stereo not drawn) [Example 33-5] | < 100 | > 20000 | –
CNCC(O)COc1cccc(-c2nc(NCc3cc(C)nn3C)c3cnn(C4CC4)c3n2)c1 (stereo not drawn) [Example 34-5] | < 100 | > 20000 | –
CNCC(O)COc1cccc(-c2nc(N(C)C3CCOCC3)c3cnn(C(C)(C)C)c3n2)c1 (stereo not drawn) [Example 36-5] | < 100 | > 20000 | –
NCC(O)COc1cccc(-c2nc(NCc3cccc4ccnn34)c3cnn(C4CC4)c3n2)c1 (stereo not drawn) [Example 37-5] | < 100 | > 20000 | –

Structure (SMILES) | IC50 (Human CARM1 (PRMT4)) [nM] | IC50 ([1]; Homo sapiens) [nM] | IC50 [1] [nM]
Cc1cc(C)c(CNc2nc(-c3cccc(OCC(O)CN)c3)nc3c2cnn3C2CC2)c(=O)[nH]1 (stereo not drawn) [Example 38-5] | 100 to 1000 | > 20000 | –
CNCC(O)COc1cc(Cl)cc(-c2cc(NC3C4COCC43)n3ncc(C(C)C)c3n2)c1 (stereo not drawn) [Example 38-6] | 100 to 1000 | > 20000 | –
NCC(O)COc1cccc(-c2nc(NCc3cn4ccsc4n3)c3cnn(C4CC4)c3n2)c1 (stereo not drawn) [Example 39-5] | < 100 | 10000 to 20000 | –
CNCC(O)COc1cc(Cl)cc(-c2cc(N(C)[C@@H]3CCOC3)n3ncc(C(C)C)c3n2)c1 (stereo partly drawn) [Example 40-6] | < 100 | > 20000 | –
Cc1cccn2cc(CNc3nc(-c4cccc(OCC(O)CN)c4)nc4c3cnn4C3CC3)nc12 (stereo not drawn) [Example 41-5] | 100 to 1000 | > 20000 | –
CNCC(O)COc1cc(Cl)cc(-c2cc(N(C)[C@H]3CCOC3)n3ncc(C(C)C)c3n2)c1 (stereo partly drawn) [Example 41-6] | < 100 | > 20000 | –
CNCC(O)COc1cccc(-c2nc(NCc3c(C)cc(C)[nH]c3=O)c3cnn(C4CC4)c3n2)c1 (stereo not drawn) [Example 42-5] | 100 to 1000 | > 20000 | –
CNCC(O)COc1cccc(-c2nc(NCc3cn4ccsc4n3)c3cnn(C4CC4)c3n2)c1 (stereo not drawn) [Example 43-5] | < 100 | > 20000 | –
CNCC(O)COc1cccc(-c2nc(NCc3cn4cccc(C)c4n3)c3cnn(C4CC4)c3n2)c1 (stereo not drawn) [Example 44-5] | 100 to 1000 | 10000 to 20000 | –
CNCC(O)COc1cc(Cl)cc(-c2cc(N3C4CCC3COC4)n3ncc(C(C)C)c3n2)c1 (stereo not drawn) [Example 46-6] | < 100 | > 20000 | –
CNCC(O)COc1cc(Cl)cc(-c2cc(N3CC4(CCOCC4)C3)n3ncc(C(C)C)c3n2)c1 (stereo not drawn) [Example 50-6] | < 100 | > 20000 | –
CNCC(O)COc1cc(OC)cc(-c2cc(N3CC(CO)(CCl)C3)n3ncc(C(C)C)c3n2)c1 (stereo not drawn) [Example 52-6] | < 100 | > 20000 | –
CNCC(O)COc1cc(Cl)cc(-c2cc(N3CC(CO)(CCl)C3)n3ncc(C(C)C)c3n2)c1 (stereo not drawn) [Example 53-6] | < 100 | > 20000 | –
CNCC(O)COc1cccc(-c2cc(NCCCCCNC(=O)c3ccn(C)n3)c3cnn(C(C)C)c3n2)c1 (stereo not drawn) [Example 64-1] | 100 to 1000 | 10000 to 20000 | –
CNCC(O)COc1cccc(-c2cc(NCCCCCCNC(=O)c3ccn(C)n3)c3cnn(C(C)C)c3n2)c1 (stereo not drawn) [Example 66-1] | < 100 | > 20000 | –
